The supplement of paper PMC6045584
± gives the standard deviation of the averaged measurements.

Experiments:
AFATINIB [1] = compound: T1, CN(C)C/C=C/C(=O)Nc1cc2c(Nc3ccc(F)c(Cl)c3)ncnc2cc1O[C@H]1CCOC1 [AFATINIB]; assay: surviving fraction relative to DMSO-only wells; higher = less growth inhibition; conditions: exposure time: 5 days
How it was run: (§1)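 Tumour cell lines in log phase were plated in 384-well plates at 250–500 cells per well, then, after 24 hours, exposed continuously for five days to inhibitors at 0.5, 1, 5, 10, 50, 100, 500 and 1000 nM. Viability came from CellTiter-Glo luminescence, and surviving fraction is that signal normalised to the median of DMSO-only wells. Plates were read after 10 minutes at room temperature, and each line, screened three times, was kept only when replicate Pearson r was >0.7 and median Z' was >0.3.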

[2] = compound: Cn1cc(C2=Nc3cc(NC(=O)C(N)C4CCCCC4)cc4c3C2=CNNC4=O)cn1; assay: as above; conditions: exposure time: 5 days
How it was run: as §1

SNX-5422 = compound: CC1(C)CC(=O)c2c(C(F)(F)F)nn(-c3ccc(C(N)=O)c(N[C@H]4CC[C@H](OC(=O)CN)CC4)c3)c2C1 [SNX-5422]; assay: area under dose-response curve of surviving fraction (unscaled, Aref=0) (surviving fraction x log10(nM)); higher = more resistant; conditions: exposure time: 5 days; dose range 0.5-1000 nM
How it was run: (§2)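 Tumour cell lines in 384-well plates were exposed for five days to eight inhibitor concentrations from 0.5 to 1000 nM. Viability was read by CellTiter-Glo luminescence, normalised to DMSO-only wells, in three screens per line. Dose-response survival curves were fitted to surviving fractions by 3-parameter logistic regression in the drc R package. Area under the curve is the unscaled activity area (Aref = 0) over log10 dose.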

SAPACITABINE = compound: CCCCCCCCCCCCCCCC(=O)Nc1ccn([C@@H]2O[C@H](CO)[C@@H](O)[C@@H]2C#N)c(=O)n1 [SAPACITABINE]; assay: as above; conditions: exposure time: 5 days; dose range 0.5-1000 nM
How it was run: as §2

AFATINIB [3] = compound: T1, AFATINIB; assay: as above; conditions: exposure time: 5 days; dose range 0.5-1000 nM
How it was run: as §2

[4] = compound: Cn1cc(C2=Nc3cc(NC(=O)C(N)C4CCCCC4)cc4c3C2=CNNC4=O)cn1; assay: as above; conditions: exposure time: 5 days; dose range 0.5-1000 nM
How it was run: as §2

| Test System | surviving fraction (AFATINIB [1]; 0.5 nM) | surviving fraction (AFATINIB [1]; 1 nM) | surviving fraction (AFATINIB [1]; 5 nM) | surviving fraction (AFATINIB [1]; 10 nM) | surviving fraction (AFATINIB [1]; 50 nM) | surviving fraction (AFATINIB [1]; 100 nM) | surviving fraction (AFATINIB [1]; 500 nM) | surviving fraction (AFATINIB [1]; 1000 nM) | surviving fraction ([2]; 0.5 nM) | surviving fraction ([2]; 1 nM) | surviving fraction ([2]; 5 nM) | surviving fraction ([2]; 10 nM) | surviving fraction ([2]; 50 nM) | surviving fraction ([2]; 100 nM) | surviving fraction ([2]; 500 nM) | surviving fraction ([2]; 1000 nM) | area under dose-response curve (SNX-5422) | area under dose-response curve (SAPACITABINE) | area under dose-response curve (AFATINIB [3]) | area under dose-response curve [4] |
| --- | --- | --- | --- | --- | --- | --- | --- | --- | --- | --- | --- | --- | --- | --- | --- | --- | --- | --- | --- | --- |
| ASKA SYNOVIAL | 1.13 ± 0.029 | 1.09 ± 0.035 | 1.15 ± 0.083 | 1.1 ± 0.11 | 1.15 ± 0.029 | 1.14 ± 0.028 | 0.78 ± 0.023 | 0.404 ± 0.023 | 0.985 ± 0.08 | 1 ± 0.075 | 0.98 ± 0.028 | 0.992 ± 0.048 | 0.65 ± 0.054 | 0.355 ± 0.028 | 0.174 ± 0.013 | 0.229 ± 0.0066 | 2.11 | 2.18 | 3.14 | 2.3 |
| NY BONE | 0.991 ± 0.051 | 0.983 ± 0.013 | 1.02 ± 0.062 | 1.038 ± 0.008 | 1.03 ± 0.053 | 0.996 ± 0.017 | 0.683 ± 0.029 | 0.392 ± 0.017 | 1 ± 0.015 | 0.984 ± 0.0061 | 1.03 ± 0.024 | 0.95 ± 0.042 | 0.458 ± 0.014 | 0.182 ± 0.014 | 0.0577 ± 0.0055 | 0.0377 ± 0.0055 | 1.89 | 1.91 | 3.1 | 2.01 |
| HOSMNG BONE | 0.944 ± 0.077 | 0.974 ± 0.04 | 0.98 ± 0.021 | 0.915 ± 0.11 | 1.04 ± 0.054 | 1.02 ± 0.13 | 1.06 ± 0.048 | 0.991 ± 0.088 | 0.954 ± 0.099 | 0.99 ± 0.083 | 0.954 ± 0.052 | 0.943 ± 0.016 | 0.992 ± 0.025 | 0.975 ± 0.076 | 0.737 ± 0.017 | 0.15 ± 0.031 | 2.33 | 3.25 | 3.23 | 3.09 |
| T47D BREAST | 1.06 ± 0.033 | 1.04 ± 0.06 | 1.01 ± 0.031 | 0.98 ± 0.023 | 1.04 ± 0.013 | 1.08 ± 0.022 | 1.07 ± 0.054 | 0.939 ± 0.037 | 0.9916 ± 0.0057 | 1.02 ± 0.032 | 1.03 ± 0.041 | 1.07 ± 0.022 | 1.12 ± 0.044 | 1.14 ± 0.059 | 0.896 ± 0.023 | 0.661 ± 0.021 | 2.33 | 2.9 | 3.42 | 3.35 |
| SG32 HEADNECK | 1.13 ± 0.14 | 1.09 ± 0.082 | 1.13 ± 0.2 | 1.01 ± 0.078 | 0.895 ± 0.11 | 0.864 ± 0.07 | 0.637 ± 0.081 | 0.348 ± 0.09 | 1.12 ± 0.29 | 1.13 ± 0.1 | 1.14 ± 0.091 | 1.12 ± 0.14 | 0.881 ± 0.065 | 0.774 ± 0.19 | 0.273 ± 0.099 | 0.222 ± 0.087 | 1.98 | 1.91 | 2.94 | 2.65 |
| SUM159 BREAST | 1.07 ± 0.02 | 1.03 ± 0.061 | 1.07 ± 0.023 | 0.942 ± 0.13 | 0.943 ± 0.15 | 0.886 ± 0.27 | 0.896 ± 0.23 | 0.867 ± 0.27 | 1.13 ± 0.14 | 1.16 ± 0.17 | 1.16 ± 0.19 | 1.12 ± 0.12 | 1.01 ± 0.066 | 1.1 ± 0.12 | 1.04 ± 0.012 | 0.862 ± 0.011 | 2.17 | 2.81 | 3.13 | 3.54 |
| RDES SOFT TISSUE | 1.33 ± 0.2 | 1.29 ± 0.15 | 1.17 ± 0.19 | 1.3 ± 0.31 | 0.988 ± 0.18 | 1.16 ± 0.19 | 1.13 ± 0.22 | 1.11 ± 0.019 | 1.12 ± 0.071 | 0.961 ± 0.14 | 0.953 ± 0.08 | 1.1 ± 0.21 | 0.776 ± 0.2 | 1.08 ± 0.39 | 0.0493 ± 0.0045 | 0.0827 ± 0.011 | 2.11 | 2.34 | 3.88 | 2.71 |
